Results on six compounds are retold here after patent publication US8466089B2, “Pyrazole compounds, process for their production and herbicides containing them” (Ishihara Sangyo Kaisha, Ltd., priority 2008, dated 2013).

Holding throughout (type): in vivo
The subject of assay [1] is prickly sida (Sida spinosa L.). Nature of the assay: Test Example 2, soil application on the day after sowing. The settings on record: 21st to 22nd day after application, visual, read-out: Growth inhibition rate (%) Prickly sida. The procedure, abridged:
(§1)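 Upland soil pots were sown with seeds, and on the following day test formulations were sprayed onto the soil at the prescribed active-ingredient rates in water equivalent to 500 liter/hectare. Growth inhibition (0% = untreated, 100% = complete kill) was scored visually 21-22 days after application.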

In assay [2] the test system is green foxtail (Setaria viridis L.). The description is as above. Conditions: 21st to 22nd day after application, visual, read-out: Growth inhibition rate (%) Green foxtail. The procedure, abridged: as §1
For assay [3], the system named is soybean (Glycine max Merr.). The assay is described as above. Conditions: 21st to 22nd day after application, visual, read-out: Growth inhibition rate (%) Soybean. The procedure, abridged: as §1
Assay [4] deals with velvetleaf (Abutilon theophrasti MEDIC.). Described as above. Conditions: 21st to 22nd day after application, visual, read-out: Growth inhibition rate (%) Velvetleaf. The procedure, abridged:
as §1

Another assay concerns wheat (Triticum spp.). Described as above. The settings on record: 21st to 22nd day after application, visual, read-out: Growth inhibition rate (%) Wheat. The procedure, abridged: as §1
The subject of assay [5] is barnyardgrass (Echinochloa crus-galli L.). Described as above. The settings on record: 21st to 22nd day after application, visual, read-out: Growth inhibition rate (%) Barnyardgrass. In short, it runs like this: as §1
The test system of assay [6] is redroot pigweed (Amaranthus retroflexus L.). Described as above. The settings on record: 21st to 22nd day after application, visual, read-out: Growth inhibition rate (%) Redroot pigweed. In short, it runs like this: as §1
Assay [7] relates to corn (Zea mays L.). The description is as above. The settings on record: 21st to 22nd day after application, visual, read-out: Growth inhibition rate (%) Corn. The procedure, abridged:
as §1

Assay [8] concerns crabgrass (Digitaria sanquinalis L.). Described as above. Conditions: 21st to 22nd day after application, visual, read-out: Growth inhibition rate (%) Crabgrass. In short, it runs like this: as §1
Assay [9] concerns rice (Oryza sativa L.). Described as above. The settings on record: 21st to 22nd day after application, visual, read-out: Growth inhibition rate (%) Rice. In short, it runs like this:
as §1

Assay [10] deals with green foxtail (Setaria viridis L.). Nature of the assay: Test Example 1, foliar treatment in upland pots. Conditions: 20th to 22nd day after application, visual, read-out: Growth inhibition rate (%) Green foxtail. The procedure, abridged:
(§2)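 Post-emergence foliar spray at defined leaf stages (corn 2.0 to 3.3, soybean primary leaf to 0.3, green foxtail 1.5 to 3.0, rice 1.2 to 2.5), in water at 500 liter per hectare with 0.1 vol % spreader. Visual growth inhibition 0–100% rated on day 20 to 22.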

Assay [11] relates to velvetleaf (Abutilon theophrasti MEDIC.). The assay can be described thus: Test Example 1, foliar treatment in upland pots. Conditions: 20th to 22nd day after application, visual, read-out: Growth inhibition rate (%) Velvetleaf.
Assay [12] relates to barnyardgrass (Echinochloa crus-galli L.). The assay can be described thus: Test Example 1, foliar treatment in upland pots. The settings on record: 20th to 22nd day after application, visual, read-out: Growth inhibition rate (%) Barnyardgrass.
Assay [13] concerns redroot pigweed (Amaranthus retroflexus L.). Nature of the assay: Test Example 1, foliar treatment in upland pots. The settings on record: 20th to 22nd day after application, visual, read-out: Growth inhibition rate (%) Redroot pigweed.
Assay [14] concerns corn (Zea mays L.). The assay can be described thus: Test Example 1, foliar treatment in upland pots. Conditions: 20th to 22nd day after application, visual, read-out: Growth inhibition rate (%) Corn. In short, it runs like this: as §2
The test system of assay [15] is crabgrass (Digitaria sanguinalis L.). Nature of the assay: Test Example 1, foliar treatment in upland pots. The settings on record: 20th to 22nd day after application, visual, read-out: Growth inhibition rate (%) Crabgrass.
For assay [16], the system named is rice (Oryza sativa L.). The assay can be described thus: Test Example 1, foliar treatment in upland pots. The settings on record: 20th to 22nd day after application, visual, read-out: Growth inhibition rate (%) Rice. In short, it runs like this:
as §2

For the compound `CCn1nc(C)c(C(=O)c2ccc(S(C)(=O)=O)c(OCCOC)c2C)c1O` [Compound No. 6-1, (1-Ethyl-5-hydroxy-3-methyl-1H-pyrazol-4-yl)(3-(2-methoxyethoxy)-2-methyl-4-(methylsulfonyl)phenyl)ketone], the inhibition (commonly the share of the control response that was lost under treatment) at 250 g/ha in assay [1] amounted to 80%; in assay [2], 98%; in [3], 60%; in [4] it was 80%; in the assay on wheat (Triticum spp.) it was 20%; in [5], 100%. For the same compound, the inhibition at 250 g/ha in assay [6] is 100%; in the assay with corn (Zea mays L.) [7], 0%; in [8] it was 100%; in the assay on rice (Oryza sativa L.) [9], 100%. Also, the inhibition at 7 g/ha in assay [10] was determined as 60%; in assay [11], 50%; in [12] it was 10%; in assay [13] it was 60%; in the assay on corn (Zea mays L.) [14], 0%; in assay [15], 50%. Moreover, the inhibition at 7 g/ha with rice (Oryza sativa L.) [16] was determined as 20%.
`COCCOc1c(S(C)(=O)=O)ccc(C(=O)c2c(C)nn(C)c2OC(C)OC(=O)OC)c1C` (stereo not drawn) [Compound No. 1-6, 1-(4-(3-(2-Methoxyethoxy)-2-methyl-4-(methylsulfonyl)benzoyl)-1,3-dimethyl-1H-pyrazol-5-yloxy)ethyl methyl carbonate]: the inhibition at 250 g/ha in [1] came to 99%; in assay [2] it was 70%; in [3], 0%; in assay [4], 100%; in the assay on wheat (Triticum spp.), 5%; in assay [5] it was 100%. Further, the inhibition at 250 g/ha came out at 100% in assay [6], 0% in the assay with corn (Zea mays L.) [7], 100% in [8] and 98% in the assay with rice (Oryza sativa L.) [9]. Moreover, the inhibition at 7 g/ha in [10] worked out at 95%; in assay [11], 98%; in [12], 90%; in assay [13], 90%; in the assay with corn (Zea mays L.) [14], 0%; in [15], 90%. Further, in the assay with rice (Oryza sativa L.) [16], the inhibition at 7 g/ha amounted to 70%.
On to `COC(=O)OC(C)Oc1c(C(=O)c2ccc(S(C)(=O)=O)c(C(=O)OC)c2C)cnn1C` (stereo not drawn) [Compound No. 1-2, Methyl 3-(5-(1-(methoxycarbonyloxy)ethoxy)-1-methyl-1H-pyrazole-4-carbonyl)-2-methyl-6-(methylsulfonyl)benzoate], for which the inhibition at 250 g/ha came to 98% in assay [1]; 100% in assay [2]; 70% in assay [3]; 100% in [4]; 20% in the assay with wheat (Triticum spp.); 100% in assay [5]. Moreover, the inhibition at 250 g/ha is 100% in assay [6], 0% in the assay with corn (Zea mays L.) [7], 100% in [8] and 100% in the assay with rice (Oryza sativa L.) [9]. The inhibition at 7 g/ha in assay [10] turned out to be 100%; in assay [11], 80%; in assay [12], 100%; in assay [13], 95%; with corn (Zea mays L.) [14], 0%; in assay [15], 90%. In addition, the inhibition at 7 g/ha in the assay with rice (Oryza sativa L.) [16] stood at 70%.
As to `CCn1ncc(C(=O)c2ccc(S(C)(=O)=O)c(OCCOC)c2C)c1OC(C)OC(=O)OC` (stereo not drawn) [Compound No. 2-1, 1-(1-Ethyl-4-(3-(2-methoxyethoxy)-2-methyl-4-(methylsulfonyl)benzoyl)-1H-pyrazol-5-yloxy)ethyl methyl carbonate], the inhibition at 250 g/ha in [1] came out at 90%; in assay [2], 100%; in [3], 0%; in assay [4], 100%; with wheat (Triticum spp.), 0%; in [5], 95%. Further, the inhibition at 250 g/ha in [6] turned out to be 100%; in the assay with corn (Zea mays L.) [7] it was 0%; in assay [8], 100%; with rice (Oryza sativa L.) [9] it was 98%. The inhibition at 7 g/ha in assay [10] was 100%; in assay [11], 100%; in assay [12], 95%; in [13], 90%; in the assay with corn (Zea mays L.) [14], 0%; in [15], 100%. The inhibition at 7 g/ha in the assay on rice (Oryza sativa L.) [16] is 70%.
As to `COCCOc1c(S(C)(=O)=O)ccc(C(=O)c2cnn(C(C)C)c2OC(C)OC(=O)OC)c1C` (stereo not drawn) [Compound No. 4-1, 1-(1-Isopropyl-4-(3-(2-methoxyethoxy)-2-methyl-4-(methylsulfonyl)benzoyl)-1H-pyrazol-5-yloxy)ethyl methyl carbonate], the inhibition at 250 g/ha is 95% in assay [1]; 100% in assay [2]; 0% in assay [3]; 100% in assay [4]; 10% in the assay with wheat (Triticum spp.); 100% in [5]. Further, the inhibition at 250 g/ha in [6] was 100%; with corn (Zea mays L.) [7], 0%; in [8], 100%; with rice (Oryza sativa L.) [9], 98%. The inhibition at 7 g/ha is 95% in assay [10]; 100% in assay [11]; 90% in assay [12]; 85% in assay [13]; 0% with corn (Zea mays L.) [14]; 90% in assay [15]. Further, the inhibition at 7 g/ha in the assay with rice (Oryza sativa L.) [16] stood at 80%.
As for `Cc1c(C(=O)c2cnn(C)c2O)ccc(S(C)(=O)=O)c1OCCC(C)C` [Compound No. 5-1, (5-Hydroxy-1-methyl-1H-pyrazol-4-yl)(3-(2-isopropylethoxy)-2-methyl-4-(methylsulfonyl)phenyl)ketone], the inhibition at 250 g/ha is 98% in [1]; 95% in [2]; 0% in assay [3]; 100% in assay [4]; 20% in the assay on wheat (Triticum spp.); 98% in [5]. Also, the inhibition at 250 g/ha in assay [6] is 100%; in the assay with corn (Zea mays L.) [7] it was 10%; in assay [8], 98%; in the assay with rice (Oryza sativa L.) [9] it was 98%. The inhibition at 7 g/ha is 50% in assay [10]; 10% in [11]; 30% in [12]; 60% in assay [13]; 0% in the assay with corn (Zea mays L.) [14]; 50% in [15]. For the same compound, the inhibition at 7 g/ha in the assay on rice (Oryza sativa L.) [16] was 0%.
